The conditions of series [1]: cited from earlier work.
For the next series, the system named is human Liver-Chip. In words: Liver-Chip DILI prediction: minimum toxic concentration and margin of safety (MOS)-like figure.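 Further: Toxic concentration is the lowest across albumin IC50 and ALT and morphology endpoints.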 The conditions noted are these: free IC50 concentration in the assay divided by total concentration of drug in human plasma at Cmax. From the text:
Because the fundamental principles of drug action dictate that free (unbound) drug concentrations drive drug effects, we explored an alternative methodology for calculating the MOS-like values by accounting for protein binding using a previously reported approach. Accordingly, we reanalyzed the findings for the 27 drugs in our study by accounting for protein binding.

The conditions of series [2]: plasma, cited from earlier work.
Series [3] relates to human Liver-Chip (primary human hepatocytes). In words: Liver-Chip albumin production in top channel effluent (ELISA). Format: cell-based. The conditions noted are these: expanded drug list; lowest multiplier causing a 50% reduction in albumin production; donor 1. From the text:
(§1) Cycles 1 to 4 tested 6–8 concentrations in duplicate for each of 10–13 drugs. To determine which sampling strategy was optimal for cycles 1 to 4 (16 doses × 1 replicate, 8 × 2, 5 × 3, or 4 × 4), we generated three different “dose-response” synthetic datasets, each distorted by different noise levels (low, medium, or high). For each of these datasets, we performed curve-fitting analyses and calculated the Root Mean Square Error between the “true” and estimated IC50 parameter. […] Some drugs were also repeated across cycles (on different donors or at different concentrations) to ensure experimental robustness. However, to replicate a more typical study design likely to be carried out by scientists in the pharmaceutical industry, we created cycle 5 with 6 drugs, where each was tested in 4 concentrations in triplicate. For each cycle, chips were dosed with drug over 8 days (referred to as Day 0 through Day 7).
(§2) The drug dosing concentrations were determined from the unbound human Cmax of each drug. First, the expected fraction of drug unbound in media with 2% FBS was extrapolated from plasma binding data for each drug. Dosing concentrations were then back calculated such that the unbound fraction in media would reflect relevant multiples of unbound human Cmax (Supplementary Data 1).
(§3) On the first dosing day (Day 0), all chips were imaged using the ECHO microscope. Five hundred microliters of effluent was collected from all four reservoirs of the pod and placed in a labeled 96-well plate. After collection, all the remaining media was carefully aspirated before dosing with 3.8 mL of corresponding dosing solution. Dosing occurred on study days 0, 2, and 4 for chips flowing at 30 µL/h, and on days 0, 1, 2, 3, 4, 5, and 6 for chips flowing at 150 µL/h. Effluent collection occurred on days 1, 3, and 7.
(§4) Top channel outlet effluents were analyzed to quantify albumin and alanine transaminase (ALT) levels on days 1, 3, and 7 using sandwich ELISA kits (Abcam, Albumin ab179887, ALT ab234578) according to vendor-provided protocols. Frozen (−80 °C) effluent samples were thawed overnight at 4 °C prior to assay. The Hamilton Vantage liquid handling platform was used to manage effluent dilutions (1:500 for albumin, neat for ALT), preparation of standard curves, and addition of antibody cocktail. Absorbance at 450 nm was measured using the SynergyNeo Microplate Reader (BioTek).
All statistical analyses were conducted in R[21] (version 4.1.2) and figures were produced using the R package ggplot2[22] (version 3.3.5). The dose-response analysis (Fig. 4) was carried out using the popular drc R package developed by Ritz et al.[23] using the generalized log-logistic dose-response model. The error bars in Figs. 3 and 4, correspond to the standard errors of the mean. The circles in Fig. 3 correspond to the samples used to calculate the corresponding statistics. The analysis of significance in Fig. 3 was performed using paired t-test across different days (same donor) and unpaired t-test across different donors (same day). In Fig. 3 the number of samples used were n = 3 for donor two, and n = 4 for donor three. For both donors, the number of the freshly thawed hepatocyte samples used to estimate the corresponding log2(Fold Change) were n = 4. Finally, the analysis of significance in Fig. 3 was performed using paired t-test.
A general note: In an ELISA, binding on a coated surface is turned into a signal by an enzyme label.

The test system is the same in series [4]. In words: Liver-Chip alanine transaminase (ALT) release in top channel effluent (ELISA). In kind it is cell-based.
Description: as §1, §2, §3, §4

Series [5] concerns human Liver-Chip (hepatocytes and non-parenchymal cells). The note with it: for Morphology Donor 1: human. The procedure: At least four to six brightfield images were acquired per chip for morphology analysis. […] Brightfield images were acquired across three fields of view on days 1, 3, and 7 for each cycle. Cytotoxicity classification was performed while acquiring images for both NPCs and hepatocytes. Images were then scored zero to four by blinded individuals (n = 2) based on severity of agglomeration of cell debris for both channels. The scoring matrix and representative images have been included in the supplement (Supplementary Fig. 1).
Hepatocyte layer on Chips
Non-parenchymal cell layer on Chips
Supplementary Figure 1. (a) Representative brightfield images to depict the cellular morphology score in the top channel of the Liver-Chip which contains hepatocytes. A score of 0 represents no hepatotoxicity detected, which is defined by 95-100% healthy hepatocyte morphology, hexagonal shape containing binucleated cells, clear cell cytoplasm, distinctive cell junctions and less than 5% dead cells. A score of 1 […]
cells. A score of 2 represents mild hepatotoxicity with > 70% monolayer of hepatocytes visible, evidence that cells have begun to lose their distinct cell junctions, many cells contain a granulated cytoplasm but < 30% are dead cells. A score of 3 represents moderate hepatotoxicity with severe granulation of cytoplasm and most of the cells have lost their junctions. Approximately 50% of the cells are considered dead. A score of 4 represents severe hepatotoxicity with agglomeration of cell debris and > 50% of the cells are considered dead. The pores on the membrane become visible as there is no longer a cellular monolayer. (b) Representative brightfield images to depict the cellular morphology score in the bottom channel of the Liver-Chip which contains non-parenchymal cells. A score of 0 represents no cytotoxicity detected, with an intact monolayer and <1% of the cells are dead. A score of 1 represents at least 90% of the monolayer is present and there are <10% dead cells. A score of 2 represents mild cytotoxicity with > 80% of the monolayer present and < 20% are dead cells. A score of 3 represents moderate cytotoxicity with > 50% of the monolayer present and < 50% are dead cells. A score of 4 represents severe cytotoxicity with > 50% of the cells are considered dead. (bar, 50 μm). […]

Series [6] deals with human Liver-Chip (hepatocyte layer). Briefly: Liver-Chip immunofluorescence imaging (caspase 3/7, TMRM, AdipoRed/LipidTOX). Format: cell-based. Here is the method:
Chips were detached from pods and washed once with PBS. […] Afterwards, chips were washed with PBS and stored at 4 °C until staining. Following fixation, chips corresponding to low, medium, and high concentrations from each group were cut in half with a razor blade perpendicular to the co-culture channels. One half was used in the following staining protocol, while the other half was stored for future staining. All stains and washes utilized the bubble method, in which a small amount of air is flowed through the channel prior to bulk wash media to prevent a liquid-liquid dilution of the staining solution. […] Following 15 minutes of incubation at room temperature, each channel was washed with 200 µL of PBS (alternating channels, 2× for top and 3× for bottom). As an alternative lipid accumulation marker, 100 µL of HCS LipidTOX Deep Red (ThermoFisher, H34477) was diluted 1:1000 v/v in PBS with NucBlue counterstain and added to the top channel. After a 30 min incubation at room temperature, the chips were again allowed to reach room temperature before the channels were alternatively washed with 200 µL of PBS, the bottom channel undergoing three washes and the top channel undergoing two. Chips were then imaged using the Opera Phenix. Following lipid and DAPI staining and imaging, chips were stained with a […] (MRP2) antibody to visualize the bile canalicular structures characteristic of healthy Liver-Chips. […] Then, each channel was washed with 200 µL of PBS (alternating channels, 2× for top and 3× for bottom). […] Next, primary antibody Mouse anti-MRP2 (Abcam, ab3373) was prepared 1:100 in the original blocking buffer, diluted 1:4 in PBS. 100 µL of solution was added to each channel, and chips were stored overnight at 4 °C. The following day, each channel was washed with 200 µL of PBS (alternating channels, 2× for top and 3× for bottom). […] 100 µL of solution was added to each channel and chips incubated at room temperature, protected from light, for two hours. Then, each channel was washed with 200 µL of PBS (alternating channels, 2× for top and 3× for bottom). Chips were imaged immediately or stored at 4 °C until ready for imaging on the Opera Phenix. Chip replicates designated for live cell imaging were washed with PBS utilizing the bubble method. Chips were then cut in half perpendicular to the co-culture channels. […] The bottom chips halves were stained with NucBlue (Thermo) to visualize nuclei and Tetramethylrhodamine, methyl ester (TMRM) (ThermoFisher, I34361) to visualize active mitochondria. This staining panel was prepared in PBS with 5% FBS, with NucBlue at 2 drops per mL and TMRM at a 1:1000 ratio in original blocking buffer, diluted 1:4 in PBS. Chips were incubated in the dark at 37 °C for 30 min, and then each channel was washed with 200 µL of PBS (alternating channels, 2× for top and 3× for bottom). The chips were kept at 37 °C, protected from light, until ready for imaging with the Opera Phenix. Fluorescent confocal image acquisition was performed using the Opera Phenix High-Content Screening System and Harmony 4.9 Imaging and Analysis Software (PerkinElmer). Before acquisition, the Phenix internal environment was set to 37 °C and 5% CO2. […] Whole chips were placed directly into each slot, while top and bottom half chips were matched and combined in one chip slot. Chips were aligned flush with the adapter and one another. Any bubbles identified from visual inspection were washed out with PBS. Once ready, the stained chips were covered with transparent plate film to seal channel ports and loaded into the Phenix. […] Z-stacks were generated with 3.6 µm between slices for 28–32 planes so that the epithelium was located around the center of the stack. […] Raw images from fixed and live imaging were exported in TIFF format from the Harmony software. Using scripts written for FIJI (ImageJ), TIFFs across three color channels and multiple z-stacks were compiled into composite images for each field of view in each chip. […]

The subject of series [7] is 3D spheroid cultures of primary human hepatocytes. The conditions noted are these: cited from earlier work.
Series [8] deals with clinical drug-induced liver injury. The note with it: clinical DILI severity category 1 to 5; cited from earlier work.
Where [9] appears, read: human, total plasma Cmax, ref Proctor, W.R. et al. (29).

Structures can show the parent of a compound that is named as a salt. Where two headings read alike, the source gives them in different places.

On to `N[C@@H]1[C@H]2CN(c3nc4c(cc3F)c(=O)c(C(=O)O)cn4-c3ccc(F)cc3F)C[C@@H]12` [Trovafloxacin mesylate], for which the “Human Cmax Total” value was 5 µM in series [1] (human therapeutic total plasma Cmax from literature, ref Xu, J. J. et al. (36)) and 5 µM in [1] (human, total plasma Cmax, ref Xu, J. J. et al. (36)).
As for `CN1CCN(C2=Nc3cc(Cl)ccc3Nc3ccccc32)CC1` [Clozapine], the “Chip MOS both donors” value with human Liver-Chip (both donors) is reported as 1.8. Moreover, the “Chip MOS donor 1” value in the series on human Liver-Chip was 1.8. Further, the “Chip MOS donor 2” value in the series on human Liver-Chip (donor 2) is recorded as 5. Also, the “Human Cmax Total” value in series [1] (setting [9]) was 2.4 µM. Also, the “Expected Fraction Unbound in Plasma” value in series [2] (ref Lau, S.W.J. (65)) is 0.055.
Take `CCc1nn(CCCN2CCN(c3cccc(Cl)c3)CC2)c(=O)n1CCOc1ccccc1` [Nefazodone hydrochloride]: the “Human Cmax Total” value in [1] (setting [9]) is 4.3 µM.
With `C[C@]12CC[C@@H]3c4ccc(O)cc4CC[C@H]3[C@@H]1CC[C@@H]2O` [Beta-Estradiol], in series [3], the “Albumin IC50 Donor 1” value was >300 unbound human Cmax multiplier. The “Human Cmax Total” value in series [1] (human, total plasma Cmax, ref Sivapalasingam, S. & Steigbigel, N. H. (67)) is 0.0006 µM.
Consider `O=C(O)Cc1ccccc1Nc1c(Cl)cccc1Cl` [Diclofenac sodium], for which the “Human Cmax Total” value in series [1] (setting [9]) is 10.1 µM. Besides, the “Expected Fraction Unbound in Plasma” value in [2] (ref Lau, S.W.J. (65)) is listed as 0.005.
For the compound `O=C1CC2(CCCC2)CC(=O)N1CCCCN1CCN(c2ncccn2)CC1` [Buspirone], in [4] (lowest concentration causing an increase in ALT protein), the “ALT Donor 1” value is reported as > 300 multiples of the unbound human Cmax. Besides, the “Morphology Donor 1” value in [5] was >300 multiples of the unbound human Cmax. In addition, the “IF imaging Donor 1” value in series [6] (matched pair analysis) is reported as “Apoptosis”. The “Chip MOS donor 1” value in the series on human Liver-Chip is recorded as more than 15. Also, the “Human Cmax Total” value in series [1] (setting [9]) was 0.009 µM. The “Spheroid MOS” value in series [7] (3D hepatic spheroids, previously published data) is reported as 16,300. Besides, the Spheroid false negative result in series [7] (Yes/No, also No for drugs not tested in spheroid) is reported as “No”. Also, the “Garside DILI rank” value in [8] is given as 4.
On to `CN(C)CCC(c1ccc(Cl)cc1)c1ccccn1` (stereo not shown) [Chlorpheniramine maleate], for which the “Human Cmax Total” value in [1] (setting [9]) was 0.04 µM.
As to `Cc1cc2c(cc1CC(=O)c1sccc1S(=O)(=O)[N-]c1onc(C)c1Cl)OCO2.[Na+]` [Sitax(s)entan sodium salt], in series [1] (human, total plasma Cmax, ref National Center for Biotechnology Information (73)), the “Human Cmax Total” value is 28.6 µM. Besides, in series [2] (reference data from the literature, no reference), the “Expected Fraction Unbound in Plasma” value is on record as 0.01.
In the case of `CN(C)CCC(c1ccc(Cl)cc1)c1ccccn1` (stereo not shown) [Chlorpheniramine], the “Chip MOS donor 1” value in the series on human Liver-Chip is reported as more than 200. Moreover, in series [8], the “Garside DILI rank” value is listed as 3.
On to `O=C(O)Cc1ccccc1Nc1c(Cl)cccc1Cl` [Diclofenac], for which the “ALT change in words” value in series [4] (Liver-Chip effluent) is listed as “no elevation of ALT”. For the same compound, the “ALT Donor 1” value in series [4] (expanded drug list, lowest concentration causing an increase in ALT release) is reported as > 1000 unbound human Cmax multiplier. In [5], the “Morphological injury score change in words” value was “concentration and time-dependent changes”; the “Morphology Donor 1” value is 1000 unbound human Cmax multiplier. Further, in series [6] (caspase 3/7 (apoptosis) or TMRM (mitotoxicity), 7 days), the “Immunofluorescence staining result in words” value is listed as “apoptosis-mediated cell death”. Further, in [6] (day 7 post-drug administration, hepatocyte layer, top channel, donor one), the “Immunofluorescent findings, donor one (Supplementary Figure 3)” value is given as “Apoptosis”. The “IF imaging Donor 1” value in [6] (expanded drug list) is reported as “Apoptosis”. In addition, the “Chip MOS donor 1” value in the series on human Liver-Chip is reported as 1.8. Also, the “Spheroid MOS” value in [7] was 6.1.

The values are drawn from article PMC9727064, “Performance assessment and economic analysis of a human Liver-Chip for predictive toxicology” (Communications Medicine, 2022).
